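Exposure lasted 48 hours, with cells grown in 96-well plates and compounds tested at five concentrations. GI50: concentration for 50% inhibition of growth.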 The source made the active and inactive calls. No stated cut-off is given here; in the data, active = GI50 up to about 1.1 µM and inactive = higher.
Assays:
Test in all cases: NCI tumour cell line growth inhibition, 48 h
OVCAR-8 = system: OVCAR-8
NCI/ADR-RES = system: NCI/ADR-RES
MCF7 = system: MCF7
SF-539 = system: SF-539
RPMI-8226 = system: RPMI-8226
TK-10 = system: TK-10
OVCAR-3 = system: OVCAR-3
SK-MEL-2 = system: SK-MEL-2
OVCAR-5 = system: OVCAR-5
A498 = system: A498
HOP-62 = system: HOP-62
UACC-257 = system: UACC-257
SK-OV-3 = system: SK-OV-3
M14 = system: M14
EKVX = system: EKVX
NCI-H522 = system: NCI-H522
OVCAR-4 = system: OVCAR-4
SR = system: SR
LOX IMVI = system: LOX IMVI
Malme-3M = system: Malme-3M

Measured: GI50

CSc1nc(O)c(C#N)c(-c2ccc(Cl)cc2)n1
inactive: OVCAR-8 > 100 µM | NCI/ADR-RES > 100 µM | MCF7 > 100 µM | SF-539 > 100 µM | RPMI-8226 80.4 µM | TK-10 > 100 µM | OVCAR-3 > 100 µM | SK-MEL-2 > 100 µM | OVCAR-5 > 100 µM | A498 74.6 µM | HOP-62 > 100 µM | UACC-257 > 100 µM | SK-OV-3 > 100 µM | M14 > 100 µM | EKVX > 100 µM | NCI-H522 51.8 µM | OVCAR-4 > 100 µM

CC(C)C1(NC(=O)C2CC3c4cccc5[nH]cc(c45)CC3N(C)C2)OC2(O)C3CCCN3C(=O)C(Cc3ccccc3)N2C1=O (stereo unspecified)
inactive: OVCAR-8 42.4 µM | NCI/ADR-RES 35.4 µM | MCF7 13.6 µM | SF-539 15.4 µM | RPMI-8226 4.44 µM | TK-10 30.6 µM | OVCAR-3 16.2 µM | SK-MEL-2 29.2 µM | OVCAR-5 > 100 µM | HOP-62 > 100 µM | UACC-257 48.1 µM | M14 42.7 µM | EKVX 30.3 µM | SR 12.9 µM | NCI-H522 38.9 µM | OVCAR-4 53.5 µM | LOX IMVI 12.1 µM

CCOc1cc(CCNC)c2c(ccc3ccc(OC)c(O)c32)c1OC
inactive: OVCAR-8 13.6 µM | Malme-3M 6.92 µM | NCI/ADR-RES 19.2 µM | MCF7 8.47 µM | RPMI-8226 12.4 µM | TK-10 18 µM | OVCAR-3 14.5 µM | SK-MEL-2 14.2 µM | OVCAR-5 14.5 µM | HOP-62 20.3 µM | UACC-257 13.1 µM | SK-OV-3 14.4 µM | M14 13.9 µM | EKVX 19.3 µM | SR 4.44 µM | NCI-H522 5.14 µM | OVCAR-4 13.7 µM | LOX IMVI 11.5 µM

COC(=O)[C@@]1(NC(=O)C(CC(=O)OC(C)(C)C)NC(=O)OC(C)(C)C)C[C@H]1C (stereo partly specified)
inactive: OVCAR-8 > 100 µM | Malme-3M > 100 µM | NCI/ADR-RES > 100 µM | MCF7 > 100 µM | SF-539 > 100 µM | RPMI-8226 > 100 µM | TK-10 > 100 µM | OVCAR-3 > 100 µM | SK-MEL-2 > 100 µM | OVCAR-5 > 100 µM | A498 > 100 µM | HOP-62 > 100 µM | UACC-257 > 100 µM | SK-OV-3 > 100 µM | M14 > 100 µM | EKVX > 100 µM | NCI-H522 > 100 µM | OVCAR-4 > 100 µM | LOX IMVI > 100 µM

CCOC(=O)NN(C(=O)OCC)c1ccc(/N=N/c2ccc(OC)cc2)n1C
inactive: OVCAR-8 35.5 µM | Malme-3M 25.2 µM | NCI/ADR-RES 25.9 µM | MCF7 6 µM | SF-539 18.4 µM | RPMI-8226 19.9 µM | TK-10 44.2 µM | OVCAR-3 18.5 µM | SK-MEL-2 10.8 µM | OVCAR-5 32.7 µM | A498 25.3 µM | HOP-62 26.9 µM | UACC-257 23.1 µM | SK-OV-3 30.7 µM | M14 22.8 µM | EKVX > 100 µM | NCI-H522 18 µM | OVCAR-4 36.9 µM | LOX IMVI 21.5 µM

Cc1c2c(c(C)n1-c1ccccc1)C(=O)N(CCSC(=N)N)C2=O
inactive: OVCAR-8 62.2 µM | Malme-3M > 100 µM | NCI/ADR-RES 59.6 µM | MCF7 32.1 µM | SF-539 > 100 µM | RPMI-8226 > 100 µM | TK-10 > 100 µM | OVCAR-3 > 100 µM | SK-MEL-2 31.4 µM | OVCAR-5 > 100 µM | A498 32.4 µM | HOP-62 83.6 µM | UACC-257 28.8 µM | SK-OV-3 > 100 µM | M14 > 100 µM | EKVX 9.75 µM | NCI-H522 35.7 µM | OVCAR-4 9.29 µM

CCC(CS(=O)(=O)O)[N+](=O)[O-] (stereo unspecified)
inactive: OVCAR-8 > 100 µM | Malme-3M > 100 µM | NCI/ADR-RES > 100 µM | MCF7 > 100 µM | SF-539 > 100 µM | RPMI-8226 > 100 µM | TK-10 > 100 µM | OVCAR-3 > 100 µM | SK-MEL-2 > 100 µM | OVCAR-5 > 100 µM | A498 > 100 µM | HOP-62 > 100 µM | UACC-257 > 100 µM | SK-OV-3 > 100 µM | M14 > 100 µM | EKVX > 100 µM | NCI-H522 > 100 µM | OVCAR-4 > 100 µM | LOX IMVI > 100 µM

O=C(c1ccccc1)c1ccc(N2C(=O)/C(=C/c3cccc(Oc4ccccc4)c3)N=C2c2ccccc2)c(N2C(=O)/C(=C/c3cccc(Oc4ccccc4)c3)N=C2c2ccccc2)c1
inactive: OVCAR-8 32.1 µM | Malme-3M 19.5 µM | NCI/ADR-RES 18.5 µM | MCF7 24.9 µM | RPMI-8226 19.3 µM | TK-10 25.5 µM | OVCAR-3 18.9 µM | SK-MEL-2 17.7 µM | OVCAR-5 50.6 µM | A498 33.1 µM | HOP-62 67.5 µM | UACC-257 17.7 µM | SK-OV-3 42.9 µM | M14 35.7 µM | EKVX 44.2 µM | NCI-H522 11.4 µM | OVCAR-4 35.3 µM | LOX IMVI 32.9 µM

CCO/C(=N/S(=O)(=O)C(F)(F)F)N(C(C)C)C(C)C
inactive: OVCAR-8 > 100 µM | Malme-3M > 100 µM | NCI/ADR-RES > 100 µM | MCF7 > 100 µM | SF-539 47 µM | RPMI-8226 > 100 µM | TK-10 > 100 µM | SK-MEL-2 > 100 µM | OVCAR-5 > 100 µM | A498 > 100 µM | UACC-257 > 100 µM | M14 > 100 µM | EKVX > 100 µM | NCI-H522 > 100 µM | OVCAR-4 > 100 µM | LOX IMVI > 100 µM

CC1=C(C#N)C(=C(C#N)C#N)OC1(C)Cc1ccccc1 (stereo unspecified)
inactive: OVCAR-8 65.5 µM | NCI/ADR-RES 31.9 µM | MCF7 38.2 µM | SF-539 64.7 µM | RPMI-8226 42.7 µM | TK-10 36.4 µM | OVCAR-3 14.6 µM | SK-MEL-2 36.7 µM | OVCAR-5 61.1 µM | A498 87.7 µM | HOP-62 58.9 µM | UACC-257 49.4 µM | SK-OV-3 > 100 µM | M14 30.8 µM | EKVX 45.9 µM | NCI-H522 14.4 µM | OVCAR-4 21.9 µM | LOX IMVI 23.4 µM

CCCCCC[C@H]([C@H](C)O)n1cnc2c(N)ncnc21
inactive: OVCAR-8 > 100 µM | Malme-3M > 100 µM | NCI/ADR-RES > 100 µM | MCF7 > 100 µM | SF-539 57.4 µM | RPMI-8226 > 100 µM | TK-10 > 100 µM | OVCAR-3 > 100 µM | SK-MEL-2 > 100 µM | OVCAR-5 > 100 µM | HOP-62 > 100 µM | UACC-257 > 100 µM | SK-OV-3 > 100 µM | M14 > 100 µM | EKVX > 100 µM | SR > 100 µM | OVCAR-4 > 100 µM | LOX IMVI > 100 µM

CCn1c(-c2ccccc2)nc2c1C(=O)c1ccccc1C2=O
inactive: OVCAR-8 14 µM | Malme-3M 8.81 µM | NCI/ADR-RES 13.3 µM | MCF7 25.5 µM | SF-539 32.4 µM | RPMI-8226 36.6 µM | TK-10 36.2 µM | OVCAR-3 5.89 µM | OVCAR-5 32.9 µM | HOP-62 42.5 µM | UACC-257 3.85 µM | SK-OV-3 20.6 µM | M14 15.4 µM | SR 22.3 µM | NCI-H522 15.2 µM | OVCAR-4 12.5 µM

N#Cc1nc(-c2cc([N+](=O)[O-])cc([N+](=O)[O-])c2)oc1N
inactive: OVCAR-8 > 10 µM | Malme-3M > 10 µM | NCI/ADR-RES > 10 µM | MCF7 > 10 µM | SF-539 > 10 µM | RPMI-8226 > 10 µM | TK-10 > 10 µM | HOP-62 > 10 µM | UACC-257 > 10 µM | SK-OV-3 > 10 µM | M14 > 10 µM | EKVX > 10 µM | SR > 10 µM | NCI-H522 > 10 µM | OVCAR-4 > 10 µM | LOX IMVI > 10 µM

CCc1nc(N)nc(N)c1-c1ccc(Cl)c(N=[N+]=[N-])c1
inactive: NCI/ADR-RES 6.31 µM | MCF7 7.24 µM | SF-539 4.65 µM | RPMI-8226 12.1 µM | OVCAR-3 13.4 µM | SK-MEL-2 17.4 µM | OVCAR-5 21.8 µM | A498 16.5 µM | HOP-62 9.53 µM | SK-OV-3 30.2 µM | EKVX 5.21 µM | NCI-H522 7.06 µM | OVCAR-4 22.4 µM | LOX IMVI 3.26 µM

COc1ccc(-c2oc3cc(OC)c(OC)c(O)c3c(=O)c2OC)cc1
inactive: OVCAR-8 43.2 µM | Malme-3M > 100 µM | NCI/ADR-RES 80.5 µM | MCF7 41.6 µM | SF-539 30.9 µM | RPMI-8226 > 100 µM | TK-10 34.1 µM | SK-MEL-2 30.6 µM | OVCAR-5 > 100 µM | HOP-62 30.3 µM | UACC-257 > 100 µM | SK-OV-3 22.7 µM | M14 > 100 µM | EKVX 41.6 µM | SR > 100 µM | NCI-H522 33.7 µM | OVCAR-4 89.9 µM | LOX IMVI 53.5 µM

Reference: ChEMBL document CHEMBL1201862, “PubChem BioAssay data set” (2004)
